Test systems include HCT-116; NCI-H23; SR; K562; HCT-15; COLO 205; U-251; SNB-19; NCI-H522; ACHN; Malme-3M; UACC-257; NCI-H226.
Common to all, as to assay: NCI anticancer screen, dose series, 48 h

Each structure is given as a SMILES string.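 The compound was tested at five concentrations on cells cultured in 96-well plates, with a 48-hour exposure period. GI50 is the concentration that inhibits growth by half.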 Activity calls are given as the source filed them. Rule as the data show it: active = GI50 up to about 1.1 µM and inactive = higher.

`O=C1CCC2(c3ccc(Cl)cc3)Nc3cc(Cl)ccc3N12` (stereo unspecified): the GI50 in the assay on HCT-116 is 7.06 µM (inactive); with NCI-H23, 10.9 µM (inactive); in the assay on SR, 5.9 µM (inactive); in the assay with K562, 2.31 µM (inactive); in the assay on HCT-15, 12.2 µM; with COLO 205, 4.7 µM (inactive). Also, the GI50 in the assay with U-251 is 11.7 µM (inactive); with SNB-19 it was 16.4 µM (inactive); in the assay on NCI-H522, 10.2 µM (inactive); in the assay on ACHN it was 10.4 µM (inactive); with Malme-3M, 10.7 µM (inactive); with UACC-257, 13.6 µM (inactive).
As for `CC1(C(=O)NCCN(CCNC(=O)C2(C)CC3(C)CC(C)(C2)C(=O)NC3=O)CCNC(=O)C2(C)CC3(C)CC(C)(C2)C(=O)NC3=O)CC2(C)CC(C)(C1)C(=O)NC2=O` (stereo unspecified), the GI50 in the assay on HCT-116 was > 100 µM (inactive); in the assay with NCI-H23, > 100 µM (inactive); in the assay on SR, > 100 µM (inactive); in the assay on K562, > 100 µM (inactive); with HCT-15, > 100 µM; in the assay with COLO 205 it was > 100 µM (inactive). For the same compound, the GI50 in the assay on U-251, in the assay with SNB-19, in the assay on ACHN and in the assay on UACC-257 was > 100 µM (inactive) in each case.
Turning to `N#CNc1nc(N)c(-c2ccc(Cl)cc2)c(C(=O)Nc2nccs2)n1`, the GI50 was > 100 µM (inactive) in the assay with HCT-116; > 100 µM (inactive) in the assay on NCI-H23; > 100 µM (inactive) in the assay with K562; > 100 µM (inactive) in the assay with NCI-H226; > 100 µM in the assay on HCT-15; > 100 µM (inactive) with U-251. Moreover, the GI50 with SNB-19, in the assay with NCI-H522, in the assay with ACHN, with Malme-3M and with UACC-257 was > 100 µM (inactive) throughout.
Turning to `C1C[N+]23CCC[N+]2(C1)CCC3` (stereo unspecified), the GI50 in the assay with HCT-116 is > 100 µM (inactive); in the assay on NCI-H23 it was > 100 µM (inactive); in the assay with K562, > 100 µM (inactive); with NCI-H226, > 100 µM (inactive); in the assay on HCT-15, > 100 µM; in the assay on COLO 205 it was > 100 µM (inactive). The GI50 with U-251, in the assay with SNB-19, in the assay with NCI-H522, in the assay on ACHN, with Malme-3M and with UACC-257 was > 100 µM (inactive) in each case.
`NS(=O)(=O)c1ccc(NC(=O)c2cccc3c(Nc4ccc(S(N)(=O)=O)cc4)c4ccccc4nc23)cc1`: the GI50 was 46.8 µM (inactive) in the assay with HCT-116; 87.5 µM (inactive) with NCI-H23; 11.3 µM (inactive) in the assay with K562; 37.3 µM in the assay on HCT-15; 54.5 µM (inactive) in the assay on COLO 205; 21.2 µM (inactive) in the assay on U-251. Besides, the GI50 is 30.8 µM (inactive) in the assay with SNB-19; 10.8 µM (inactive) with NCI-H522; > 100 µM (inactive) in the assay with ACHN; 43.9 µM (inactive) in the assay on Malme-3M; 32.9 µM (inactive) in the assay on UACC-257.
Regarding `Cc1nn(C(=O)CC(=O)Nc2ccc(Cl)cc2)c(C)c1/N=N/c1ccccc1C(=O)O`, the GI50 in the assay with HCT-116 was > 100 µM (inactive); in the assay on NCI-H23, > 100 µM (inactive); in the assay with K562, > 100 µM (inactive); in the assay on HCT-15, > 100 µM; with COLO 205, > 100 µM (inactive); in the assay on U-251, > 100 µM (inactive). In addition, the GI50 in the assay with SNB-19, with NCI-H522, in the assay on Malme-3M and with UACC-257 was > 100 µM (inactive) in each case.
Consider `O=C(/C=C/c1ccccc1)/C=C/c1ccccc1`, for which the GI50 in the assay with HCT-116 was 17.3 µM (inactive); in the assay with NCI-H23, 29.7 µM (inactive); with SR, 26.2 µM (inactive); with K562, 28.8 µM (inactive); in the assay with NCI-H226, > 100 µM (inactive); with HCT-15, 23.6 µM. Further, the GI50 in the assay on COLO 205 is > 100 µM (inactive); with U-251, 20.6 µM (inactive); in the assay on ACHN, 18.9 µM (inactive); in the assay with Malme-3M it was 21.8 µM (inactive); in the assay on UACC-257, 24.4 µM (inactive).
With `CCO/C([O-])=C(\C(=O)c1ccccc1)[n+]1c(C)n(C)c2ccccc21`, the GI50 in the assay on HCT-116 was > 100 µM (inactive); in the assay on NCI-H23 it was > 100 µM (inactive); in the assay with K562 it was > 100 µM (inactive); in the assay on NCI-H226, > 100 µM (inactive); in the assay with HCT-15, > 100 µM; in the assay with COLO 205 it was > 100 µM (inactive). The GI50 in the assay on U-251, with SNB-19, in the assay with NCI-H522, in the assay with Malme-3M and with UACC-257 was > 100 µM (inactive) each time.
Regarding `Cc1ccc(C)c(N2C(=O)C(=O)C(c3nc4ccccc4s3)/C(=N\c3cccc4c(=O)[nH][nH]c(=O)c34)C2=O)c1` (stereo unspecified), the GI50 was > 100 µM (inactive) in the assay with HCT-116; > 100 µM (inactive) with NCI-H23; > 100 µM (inactive) in the assay on SR; > 100 µM (inactive) with K562; > 100 µM (inactive) in the assay on NCI-H226; > 100 µM in the assay with HCT-15. In addition, the GI50 in the assay on COLO 205 was 38.2 µM (inactive); with U-251, > 100 µM (inactive); with SNB-19, > 100 µM (inactive); in the assay on ACHN, > 100 µM (inactive); in the assay with Malme-3M it was > 100 µM (inactive); with UACC-257, > 100 µM (inactive).
As to `O=C(OCCOCCOC(=O)c1c[nH]cc1-c1ccccc1)c1c[nH]cc1-c1ccccc1`, the GI50 in the assay on HCT-116 is 16 µM (inactive); in the assay on NCI-H23, 17.1 µM (inactive); in the assay with SR it was 21 µM (inactive); with K562, 28.9 µM (inactive); in the assay with NCI-H226 it was 19.2 µM (inactive); in the assay on HCT-15, 19.2 µM. For the same compound, the GI50 is 19.8 µM (inactive) in the assay on COLO 205; 17.9 µM (inactive) in the assay on U-251; 24.3 µM (inactive) in the assay with SNB-19; 15.3 µM (inactive) with NCI-H522; 18.9 µM (inactive) in the assay with Malme-3M; 18.7 µM (inactive) in the assay on UACC-257.
As for `CCOC(=O)NC(=O)c1cn(CCOCCOC(=O)NCCCCCCNC(=O)OCCOCCn2cc(C(=O)NC(=O)OCC)c(=O)[nH]c2=O)c(=O)[nH]c1=O`, the GI50 is > 100 µM (inactive) in the assay on HCT-116; > 100 µM (inactive) with NCI-H23; > 100 µM (inactive) in the assay on SR; > 100 µM (inactive) in the assay with K562; > 100 µM in the assay on HCT-15; > 100 µM (inactive) with COLO 205. The GI50 in the assay on U-251, in the assay with SNB-19, in the assay with NCI-H522, with ACHN, in the assay on Malme-3M and in the assay on UACC-257 was > 100 µM (inactive) in each case.
As for `Cc1nc2c(s/c(=N\N)n2-c2ccccc2)c(=O)n1C`, the GI50 in the assay on HCT-116 is > 100 µM (inactive); with NCI-H23, > 100 µM (inactive); in the assay on SR, > 100 µM (inactive); in the assay with K562 it was > 100 µM (inactive); in the assay on NCI-H226 it was > 100 µM (inactive); with HCT-15 it was > 100 µM. The GI50 in the assay on COLO 205, with U-251, in the assay with SNB-19, in the assay with NCI-H522, with ACHN and with UACC-257 was > 100 µM (inactive) each time.

The record behind these values is ChEMBL document CHEMBL1201862, “PubChem BioAssay data set” (2004).
